Activity calls are given as the source filed them. No cut-off for these calls is given here.
Experiments:
MCF7 [1] = test: Cytotoxicity against human MCF7 cells assessed as inhibition of cell viability incubated for 24 hrs by MTT assay; assay type: functional, cell-based; settings: MCF7, 24 h
A549 = test: Cytotoxicity against human A549 cells assessed as inhibition of cell viability incubated for 24 hrs by MTT assay; assay type: functional, cell-based; settings: A549, 24 h
HCT-116 [2] = test: Cytotoxicity against human HCT-116 cells assessed as inhibition of cell viability incubated for 24 hrs by MTT assay; assay type: functional, cell-based; settings: HCT-116, 24 h
HCT-116 [3] = test: Induction of apoptosis in human HCT-116 cells at 2 uM incubated for 24 hrs by Annexin V-FITC/PI staining based flow cytometric analysis; assay type: functional, cell-based
HCT-116 [4] = test: Induction of apoptosis in human HCT-116 cells assessed as upregulation of Bax expression at 0.25 to 2 uM incubated for 24 hrs by western blot analysis; assay type: functional, cell-based; settings: dose 0.25-2 µM
HCT-116 [5] = test: Antiproliferative activity against human HCT-116 cells assessed as inhibition of colony growth incubated for 24 hrs by crystal violet staining based analysis; assay type: functional, cell-based; settings: dose 0.25-2 µM
HCT-116 [6] = test: Induction of cell cycle arrest in human HCT-116 cells assessed as accumulation at G2/M phase at 0.25 to 2 uM incubated for 24 hrs by PI staining based flow cytometry; assay type: functional; settings: dose 0.25-2 µM
HCT-116 [7] = test: Induction of apoptosis in human HCT-116 cells assessed as upregulation of cleaved caspase-3 expression at 0.25 to 2 uM incubated for 24 hrs by western blot analysis; assay type: functional, cell-based; settings: dose 0.25-2 µM
HCT-116 [8] = test: Antiproliferative activity against human HCT-116 cells assessed as inhibition of colony growth at 2 uM incubated for 24 hrs by crystal violet staining based analysis; assay type: functional, cell-based
HCT-116 [9] = test: Induction of apoptosis in human HCT-116 cells assessed as downregulation of Bcl-2 expression at 0.25 to 2 uM incubated for 24 hrs by western blot analysis; assay type: functional, cell-based; settings: dose 0.25-2 µM
MCF7 [10] = test: Induction of cell cycle arrest in human MCF7 cells assessed as accumulation at G2/M phase at 0.25 to 2 uM incubated for 24 hrs by PI staining based flow cytometry; assay type: functional; settings: dose 0.25-2 µM
MCF7 [11] = test: Induction of apoptosis in human MCF7 cells at 2 uM incubated for 24 hrs by Annexin V-FITC/PI staining based flow cytometric analysis; assay type: functional, cell-based
MCF7 [12] = test: Antiproliferative activity against human MCF7 cells assessed as inhibition of colony growth incubated for 24 hrs by crystal violet staining based analysis; assay type: functional, cell-based; settings: dose 0.25-2 µM
MCF7 [13] = test: Antiproliferative activity against human MCF7 cells assessed as inhibition of colony growth at 2 uM incubated for 24 hrs by crystal violet staining based analysis; assay type: functional, cell-based

Structure (SMILES)	IC50 (MCF7 [1])	IC50 (A549)	IC50 (HCT-116 [2])	also measured
CC[C@@]1(O)C(=O)OCc2c1cc1n(c2=O)[C@H](c2cccc(C(F)(F)F)c2)c2cc3ccccc3nc2-1	70 nM	> 10000 nM	1200 nM	–
C=Cc1ccc([C@H]2c3cc4ccccc4nc3-c3cc4c(c(=O)n32)COC(=O)[C@]4(O)CC)cc1	600 nM	> 10000 nM	800 nM	–
CC[C@@]1(O)C(=O)OCc2c1cc1n(c2=O)[C@H](c2ccc3ccccc3c2)c2cc3ccccc3nc2-1	> 10000 nM	700 nM	> 10000 nM	–
CCc1ccc(-c2ccc([C@@H]3c4cc5ccccc5nc4-c4cc5c(c(=O)n43)COC(=O)[C@]5(O)CC)cc2)cc1	> 10000 nM	800 nM	200 nM	–
CC[C@@]1(O)C(=O)OCc2c1cc1n(c2=O)[C@H](c2ccc3c(c2)OCO3)c2cc3ccccc3nc2-1	> 10000 nM	100 nM	50 nM	–
CC[C@@]1(O)C(=O)OCc2c1cc1n(c2=O)[C@@H](c2cccc(-c3ccccc3)c2)c2cc3ccccc3nc2-1	> 10000 nM	8900 nM	> 10000 nM	–
CC[C@@]1(O)C(=O)OCc2c1cc1n(c2=O)[C@H](c2ccccc2C(C)C)c2cc3ccccc3nc2-1	9200 nM	10 nM	100 nM	–
C=Cc1ccc([C@@H]2c3cc4ccccc4nc3-c3cc4c(c(=O)n32)COC(=O)[C@]4(O)CC)cc1	100 nM	> 10000 nM	900 nM	–
CC[C@@]1(O)C(=O)OCc2c1cc1n(c2=O)[C@H](c2ccccc2F)c2cc3ccccc3nc2-1	> 10000 nM	10 nM	500 nM	–
CCOc1ccc([C@H]2c3cc4ccccc4nc3-c3cc4c(c(=O)n32)COC(=O)[C@]4(O)CC)cc1	> 10000 nM	100 nM	> 10000 nM	–
CC[C@@]1(O)C(=O)OCc2c1cc1n(c2=O)[C@H](c2ccc(F)cc2)c2cc3ccccc3nc2-1	100 nM	400 nM	> 10000 nM	–
CCOC(=O)/C=C/C[C@@H]1c2cc3ccccc3nc2-c2cc3c(c(=O)n21)COC(=O)[C@]3(O)CC	400 nM	10 nM	300 nM	–
CC[C@@]1(O)C(=O)OCc2c1cc1n(c2=O)[C@@H](c2c(OC)cccc2OC)c2cc3ccccc3nc2-1	400 nM	> 10000 nM	50 nM	Activity (HCT-116 [3]): Active; Superior Activity Compared To Camptothecin Observed; Activity (HCT-116 [4]): Active; Activity (HCT-116 [5]): Dose-dependent-effect; Activity (HCT-116 [6]): Active; Activity (HCT-116 [7]): Active; Activity (HCT-116 [8]): Active; Superior Activity Compared To Camptothecin Observed; Activity (HCT-116 [9]): Active
CCOC(=O)/C=C/C[C@H]1c2cc3ccccc3nc2-c2cc3c(c(=O)n21)COC(=O)[C@]3(O)CC	> 10000 nM	10 nM	400 nM	–
CC[C@@]1(O)C(=O)OCc2c1cc1n(c2=O)[C@@H](c2cccc(C(F)(F)F)c2)c2cc3ccccc3nc2-1	> 10000 nM	> 10000 nM	> 10000 nM	–
CC[C@@]1(O)C(=O)OCc2c1cc1n(c2=O)[C@H](c2cccc(OC)c2)c2cc3ccccc3nc2-1	> 10000 nM	200 nM	> 10000 nM	–
C=CC[C@H]1c2cc3ccccc3nc2-c2cc3c(c(=O)n21)COC(=O)[C@]3(O)CC	> 10000 nM	> 10000 nM	400 nM	–
CC[C@@]1(O)C(=O)OCc2c1cc1n(c2=O)[C@H](c2ccccc2C)c2cc3ccccc3nc2-1	> 10000 nM	> 10000 nM	200 nM	–
CC[C@@]1(O)C(=O)OCc2c1cc1n(c2=O)[C@H](CC=C(C)C)c2cc3ccccc3nc2-1	100 nM	1200 nM	600 nM	–
CC[C@@]1(O)C(=O)OCc2c1cc1n(c2=O)[C@H](c2cccc(F)c2C)c2cc3ccccc3nc2-1	> 10000 nM	10 nM	10400 nM	–
C=CC[C@@H]1c2cc3ccccc3nc2-c2cc3c(c(=O)n21)COC(=O)[C@]3(O)CC	900 nM	> 10000 nM	300 nM	–
CC[C@@]1(O)C(=O)OCc2c1cc1n(c2=O)[C@@H](c2ccccc2Cl)c2cc3ccccc3nc2-1	100 nM	> 10000 nM	> 10000 nM	–
CC[C@@]1(O)C(=O)OCc2c1cc1n(c2=O)[C@H](c2c(C)cccc2C)c2cc3ccccc3nc2-1	> 10000 nM	> 10000 nM	300 nM	–

Structure (SMILES)	IC50 (MCF7 [1])	IC50 (A549)	IC50 (HCT-116 [2])	also measured
CC[C@@]1(O)C(=O)OCc2c1cc1n(c2=O)[C@@H](CC=C(C)C)c2cc3ccccc3nc2-1	60 nM	20 nM	500 nM	–
CC[C@@]1(O)C(=O)OCc2c1cc1n(c2=O)[C@@H](c2ccc3c(c2)OCO3)c2cc3ccccc3nc2-1	> 10000 nM	500 nM	> 10000 nM	–
CC[C@@]1(O)C(=O)OCc2c1cc1n(c2=O)[C@@H](c2c(C)cccc2C)c2cc3ccccc3nc2-1	> 10000 nM	> 10000 nM	1100 nM	–
CC[C@@]1(O)C(=O)OCc2c1cc1n(c2=O)[C@@H](c2ccc(F)cc2)c2cc3ccccc3nc2-1	100 nM	> 10000 nM	> 10000 nM	–
CC[C@@]1(O)C(=O)OCc2c1cc1n(c2=O)[C@H](c2cccc(CBr)c2)c2cc3ccccc3nc2-1	> 10000 nM	1100 nM	9300 nM	–
CC[C@@]1(O)C(=O)OCc2c1cc1n(c2=O)Cc2cc3ccccc3nc2-1 [CAMPTOTHECIN]	900 nM	300 nM	300 nM	–
CC[C@@]1(O)C(=O)OCc2c1cc1n(c2=O)[C@@H](c2ccccc2F)c2cc3ccccc3nc2-1	> 10000 nM	40 nM	> 10000 nM	–
CC[C@@]1(O)C(=O)OCc2c1cc1n(c2=O)[C@H](c2ccc(C(C)(C)C)cc2)c2cc3ccccc3nc2-1	> 10000 nM	> 10000 nM	200 nM	–
CC[C@@]1(O)C(=O)OCc2c1cc1n(c2=O)[C@@H](c2ccc(-c3cccc4ccccc34)cc2)c2cc3ccccc3nc2-1	> 10000 nM	> 10000 nM	> 10000 nM	–
CC[C@@]1(O)C(=O)OCc2c1cc1n(c2=O)[C@H](c2cc(C)cc(C)c2)c2cc3ccccc3nc2-1	40 nM	> 10000 nM	> 10000 nM	Activity (MCF7 [10]): Active; Activity (MCF7 [11]): Active; Superior Activity Compared To Camptothecin Observed; Activity (MCF7 [12]): Dose-dependent-effect; Activity (MCF7 [13]): Active; Superior Activity Compared To Camptothecin Observed
CC[C@@]1(O)C(=O)OCc2c1cc1n(c2=O)[C@H](c2ccc(Cl)cc2)c2cc3ccccc3nc2-1	> 10000 nM	> 10000 nM	600 nM	–
CC[C@@]1(O)C(=O)OCc2c1cc1n(c2=O)[C@@H](c2cccc(F)c2C)c2cc3ccccc3nc2-1	> 10000 nM	10 nM	900 nM	–
CC[C@@]1(O)C(=O)OCc2c1cc1n(c2=O)[C@H](c2ccc(-c3cccc4ccccc34)cc2)c2cc3ccccc3nc2-1	1100 nM	> 10000 nM	700 nM	–
CC[C@@]1(O)C(=O)OCc2c1cc1n(c2=O)[C@@H](c2ccccc2C(C)C)c2cc3ccccc3nc2-1	> 10000 nM	10 nM	600 nM	–
CC[C@@]1(O)C(=O)OCc2c1cc1n(c2=O)[C@@H](c2ccccc2C)c2cc3ccccc3nc2-1	> 10000 nM	> 10000 nM	200 nM	–
CC[C@@]1(O)C(=O)OCc2c1cc1n(c2=O)[C@@H](c2cc(C)cc(C)c2)c2cc3ccccc3nc2-1	160 nM	> 10000 nM	> 10000 nM	–
CC[C@@]1(O)C(=O)OCc2c1cc1n(c2=O)[C@H](c2c(OC)cccc2OC)c2cc3ccccc3nc2-1	400 nM	> 10000 nM	> 10000 nM	–
CCOc1ccc([C@@H]2c3cc4ccccc4nc3-c3cc4c(c(=O)n32)COC(=O)[C@]4(O)CC)cc1	> 10000 nM	100 nM	> 10000 nM	–
CC[C@@]1(O)C(=O)OCc2c1cc1n(c2=O)[C@H](c2cccc(-c3ccccc3)c2)c2cc3ccccc3nc2-1	> 10000 nM	900 nM	> 10000 nM	–
CC[C@@]1(O)C(=O)OCc2c1cc1n(c2=O)[C@H](c2ccccc2Cl)c2cc3ccccc3nc2-1	600 nM	> 10000 nM	> 10000 nM	–
CC[C@@]1(O)C(=O)OCc2c1cc1n(c2=O)[C@@H](c2ccc(Cl)cc2)c2cc3ccccc3nc2-1	> 10000 nM	> 10000 nM	> 10000 nM	–
CC[C@@]1(O)C(=O)OCc2c1cc1n(c2=O)[C@H](c2ccc3c(c2)OCCO3)c2cc3ccccc3nc2-1	> 10000 nM	100 nM	80 nM	–
CC[C@@]1(O)C(=O)OCc2c1cc1n(c2=O)[C@@H](c2cccc(OC)c2)c2cc3ccccc3nc2-1	> 10000 nM	1100 nM	> 10000 nM	–

Reference: ChEMBL document CHEMBL6103641, “Palladium-Catalyzed Late-Stage Functionalization of Natural Antitumor Drug: Synthesis and Bioactivity of 5-Aryl Camptothecins” (J Nat Prod, 2025)
